Here are results for 6 molecules from US20220340633A1 (Adepthera LLC, priority 2016, published 2022).

The target of experiment [1] is T1, CLR/RAMP2 receptor (Homo sapiens, UniProt O60895+Q16602).
T1 construct: host or cells: CHO-K1 cells
Briefly: CLR/RAMP2 arrestin receptor activation assay (agonist). Type of experiment: cell-based. As to conditions: for EC50: CHO-K1 cells stably expressing CLR/RAMP2, arrestin, positive control ADM, read-out: CLR/RAMP 2 EC50; for Emax: CHO-K1, read-out: CLR/RAMP 2 Max Activity % of positive control, CHO-K1 cells.
Protocol: (§1) Using a receptor activation assay, the dose-dependent stimulatory response of peptide agonists of the present invention on a CLR/RAMP1 receptor, a CLR/RAMP2, or a CLR/RAMP3 receptor complex was determined. A cell line carrying the recombinant CLR/RAMP1, CLR/RAMP2, or a CLR/RAMP3 receptor was employed in the assay. Peptide agonist activities were tested, in duplicate, at 10 different concentrations, starting with 1.0 μM and serially diluted 3-fold, in DMSO. […] The CLR/RAMP1 cAMP, CLR/RAMP2 arrestin assays, and CLR/RAMP3 cAMP (DiscoveRx, Fremont, Calif.) were used.

In experiment [2] the target is CLR/RAMP1 receptor (Homo sapiens, UniProt O60894+Q16602). Briefly: CLR/RAMP1 cAMP receptor activation assay (agonist). Type of experiment: cell-based. Details: host or cells: 1321N1 cells. As to conditions: for Emax: 1321-N1, read-out: CLR/RAMP 1 Max Activity % of positive control, 1321N1 cells, % of positive control (β-CGRP); for EC50: 1321N1 cells stably expressing CLR/RAMP1, cAMP, positive control β-CGRP, read-out: CLR/RAMP 1 EC50.
Protocol: as §1

The target of experiment [3] is T2, CLR/RAMP3 receptor (Homo sapiens, UniProt O60896+Q16602). Briefly: CLR/RAMP3 cAMP receptor activation assay (agonist). As to conditions: CHO-K1, read-out: CLR/RAMP 3 Max Activity % of positive control. Type of experiment: cell-based. Details: host or cells: CHO-K1 cells.
Protocol: as §1
In experiment [4] the test system is primary human lymphatic endothelia cells (HLEC). Briefly: HLEC survival in medium with 0.1% FBS, MTS assay. Particulars: 30, 100, and 300 nM, 72 hrs. A general note: Formazan colour is commonly taken as a measure of viable cells.
Protocol: (§2) The cells were cultured for 72 hrs, and cell viability was assayed with the MTS assay (Promega).
For experiment [5] the test system is unchanged. Briefly: HLEC proliferation in medium with 2% FBS, MTS assay. As to conditions: 30, 100, and 300 nM, 72 hrs.
Protocol: as §2
Experiment [6] deals with T2, CLR/RAMP3 receptor. As to conditions: antagonist mode.
Protocol: as §1
For the analysis of antagonistic activity, the synthetic analogs were pre-incubated with the cells before adding the reference ligand at its EC80.

“Also recorded” adds a separate entry of the source. Positions of bridges follow the written chain, without caps; N, C: chain ends. Non-standard residues stand in square brackets, D forms with d. Residues, ends and D or L forms follow the SMILES beside them. *: point of attachment. Palmitoyl = CCCCCCCCCCCCCCCC(=O)*; AEEA = NCCOCCOCC(=O)O

T2 sequence (Q16602 23-461): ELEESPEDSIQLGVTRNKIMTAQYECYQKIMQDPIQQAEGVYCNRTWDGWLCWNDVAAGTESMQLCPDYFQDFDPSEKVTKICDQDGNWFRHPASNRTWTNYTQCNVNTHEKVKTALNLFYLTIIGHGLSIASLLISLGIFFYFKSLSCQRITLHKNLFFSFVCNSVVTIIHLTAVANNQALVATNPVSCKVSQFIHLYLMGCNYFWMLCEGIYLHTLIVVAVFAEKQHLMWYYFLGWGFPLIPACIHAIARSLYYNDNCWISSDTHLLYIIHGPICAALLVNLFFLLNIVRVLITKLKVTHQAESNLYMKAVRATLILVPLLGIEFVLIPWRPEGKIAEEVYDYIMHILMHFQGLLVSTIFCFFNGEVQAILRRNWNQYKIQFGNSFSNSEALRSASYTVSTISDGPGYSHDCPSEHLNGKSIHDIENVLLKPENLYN
T2 sequence (O60896 24-148): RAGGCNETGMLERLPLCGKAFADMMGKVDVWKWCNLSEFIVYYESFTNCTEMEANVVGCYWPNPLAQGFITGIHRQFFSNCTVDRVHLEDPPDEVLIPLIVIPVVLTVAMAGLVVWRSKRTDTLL
T1 sequence (Q16602 23-461): as the sequence (Q16602 23-461) above
T1 sequence (O60895 43-175): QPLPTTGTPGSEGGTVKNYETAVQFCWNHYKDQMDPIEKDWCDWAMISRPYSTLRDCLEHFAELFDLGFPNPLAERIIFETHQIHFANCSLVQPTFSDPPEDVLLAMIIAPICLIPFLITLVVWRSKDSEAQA
Chain of CLR/RAMP1 receptor (Q16602 23-461): as the sequence (Q16602 23-461) above
Chain of CLR/RAMP1 receptor (O60894 27-148): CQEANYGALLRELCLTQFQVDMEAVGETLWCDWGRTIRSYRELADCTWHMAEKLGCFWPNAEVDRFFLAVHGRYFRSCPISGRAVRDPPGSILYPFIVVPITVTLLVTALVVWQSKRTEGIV

Regarding `CCCCCCCCCCCCCCCC(=O)NCCCC[C@H](NC(=O)COCCOCCN)C(=O)NCC(=O)N[C@H]1CSSC[C@@H](C(=O)N[C@H](C(=O)N[C@H](C(=O)N[C@@H](CCC(N)=O)C(=O)N[C@@H](CCCCN)C(=O)N[C@@H](CC(C)C)C(=O)N[C@@H](C)C(=O)N[C@@H](Cc2c[nH]cn2)C(=O)N[C@@H](CCC(N)=O)C(=O)N[C@H](C(=O)N[C@@H](Cc2ccc(O)cc2)C(=O)N[C@@H](CCC(N)=O)C(=O)N[C@@H](Cc2ccccc2)C(=O)N[C@H](C(=O)N[C@@H](CC(=O)O)C(=O)N[C@@H](CCCCN)C(=O)N[C@@H](CC(=O)O)C(=O)N[C@@H](CCCCN)C(=O)N[C@@H](CC(=O)O)C(=O)N[C@@H](CC(N)=O)C(=O)N[C@@H](CO)C(=O)N[C@@H](C)C(=O)N2CCC[C@H]2C(=O)N[C@H](C(=O)N[C@@H](CC(=O)O)C(=O)N2CCC[C@H]2C(=O)N[C@@H](CO)C(=O)N[C@@H](CO)C(=O)N2CCC[C@H]2C(=O)N[C@@H](Cc2c[nH]cn2)C(=O)N[C@@H](CO)C(=O)N[C@@H](Cc2ccc(O)cc2)C(N)=O)C(C)C)[C@@H](C)O)[C@@H](C)CC)C(C)C)[C@@H](C)O)NC(=O)[C@H]([C@@H](C)O)NC(=O)CNC(=O)[C@H](Cc2ccccc2)NC(=O)[C@H](CCCNC(=N)N)NC1=O` [SEQ ID NO: 28], the values for the EC50 in experiment [1] and in experiment [2] were 0.5 nM and 0.3 nM, respectively. Further, the “CLR/RAMP 2 Max Activity % of positive control” value in experiment [1] (CHO-K1 cells, % of positive control (ADM)) stood at 143%. The Emax in experiment [2] was 54%; in experiment [3], 117%. Also, in experiment [4], the “HLEC survival (in words)” value is listed as “dose-dependently stimulated; also recorded: significantly promote”. For the same molecule, the “HLEC proliferation (in words)” value in experiment [5] is “dose-dependently stimulated; also recorded: significantly promote”.

Take `CCCCCCCCCCCCCCCC(=O)NCCCC[C@H](NC(=O)COCCOCCN)C(=O)NCC(=O)N[C@H]1CSSC[C@@H](C(=O)N[C@H](C(=O)N[C@H](C(=O)N[C@@H](CCC(N)=O)C(=O)N[C@@H](CCCCN)C(=O)N[C@@H](CC(C)C)C(=O)N[C@@H](C)C(=O)N[C@@H](Cc2c[nH]cn2)C(=O)N[C@@H](CCC(N)=O)C(=O)N[C@H](C(=O)N[C@@H](Cc2ccc(O)cc2)C(=O)N[C@@H](CCC(N)=O)C(=O)N[C@@H](Cc2ccccc2)C(=O)N[C@H](C(=O)N[C@@H](CC(=O)O)C(=O)N[C@@H](CCCCN)C(=O)N[C@@H](CC(=O)O)C(=O)N[C@@H](CO)C(=O)N[C@@H](C)C(=O)N2CCC[C@H]2C(=O)N[C@H](C(=O)N[C@@H](CC(=O)O)C(=O)N2CCC[C@H]2C(=O)N[C@@H](CO)C(=O)N[C@@H](CO)C(=O)N2CCC[C@H]2C(=O)N[C@@H](Cc2c[nH]cn2)C(=O)N[C@@H](CO)C(=O)N[C@@H](Cc2ccc(O)cc2)C(N)=O)C(C)C)[C@@H](C)O)[C@@H](C)CC)C(C)C)[C@@H](C)O)NC(=O)[C@H]([C@@H](C)O)NC(=O)CNC(=O)[C@H](Cc2ccccc2)NC(=O)[C@H](CCCNC(=N)N)NC1=O` [SEQ ID NO: 48] (H-[AEEA]K(Palmitoyl)GCRFGTCTVQKLAHQIYQFTDKDSAPVDPSSPHSY-NH2; disulfide 4-9): the Emax in experiment [1] (% of positive control (ADM)) came to 77%; in experiment [2], 78%; in experiment [3], 141%. The EC50 in experiment [1] is 0.2 nM; in experiment [2] it was 0.3 nM.

In the case of `CC[C@H](C)[C@H](NC(=O)[C@H](CCC(N)=O)NC(=O)[C@H](Cc1c[nH]cn1)NC(=O)[C@H](C)NC(=O)[C@H](CC(C)C)NC(=O)[C@H](CCCCN)NC(=O)[C@H](CCC(N)=O)NC(=O)[C@@H](NC(=O)[C@@H](NC(=O)[C@@H]1CSSC[C@H](NC(=O)CNC(=O)[C@H](Cc2ccccc2)NC(C)=O)C(=O)N[C@@H](CCCNC(=N)N)C(=O)N[C@@H](Cc2ccccc2)C(=O)NCC(=O)N[C@@H]([C@@H](C)O)C(=O)N1)[C@@H](C)O)C(C)C)C(=O)N[C@@H](Cc1ccc(O)cc1)C(=O)N[C@@H](CCC(N)=O)C(=O)N[C@@H](Cc1ccccc1)C(=O)N[C@H](C(=O)N[C@@H](CC(=O)O)C(=O)N[C@@H](CCCCN)C(=O)N[C@@H](CC(=O)O)C(=O)N[C@@H](CCCCN)C(=O)N[C@@H](CC(=O)O)C(=O)N[C@@H](CC(N)=O)C(=O)N[C@H](C(=O)N[C@@H](C)C(=O)N1CCC[C@H]1C(=O)N[C@@H](CCCNC(=N)N)C(=O)N[C@@H](CO)C(=O)N[C@@H](CCCCN)C(=O)N[C@H](C(=O)N[C@@H](CO)C(=O)N1CCC[C@H]1C(=O)N[C@@H](CCC(N)=O)C(=O)NCC(=O)N[C@@H](Cc1ccc(O)cc1)C(N)=O)[C@@H](C)CC)C(C)C)[C@@H](C)O` [SEQ ID NO: 53, reference compound], the Emax in experiment [1] (% of positive control (ADM)) came out at 102%; in experiment [2], 69%. In addition, in experiment [4], the “HLEC survival (in words)” value is given as “minimal effects; also recorded: negligible effects”. Also, the “HLEC proliferation (in words)” value in experiment [5] is “minimal effects; also recorded: negligible effects”.

Consider `CCCCCCCCCCCCCCCC(=O)NCCCC[C@H](NC(=O)COCCOCCN)C(=O)NCC(=O)N[C@H]1CSSC[C@@H](C(=O)N[C@H](C(=O)N[C@H](C(=O)N[C@@H](CCC(N)=O)C(=O)N[C@@H](CCCCN)C(=O)N[C@@H](CC(C)C)C(=O)N[C@@H](C)C(=O)N[C@@H](Cc2c[nH]cn2)C(=O)N[C@@H](CCC(N)=O)C(=O)N[C@H](C(=O)N[C@@H](Cc2ccc(O)cc2)C(=O)N[C@@H](CCC(N)=O)C(=O)N[C@@H](Cc2ccccc2)C(=O)N[C@H](C(=O)N[C@@H](CC(=O)O)C(=O)N[C@@H](CCCCN)C(=O)N[C@@H](CC(=O)O)C(=O)N[C@@H](CCCCN)C(=O)N[C@@H](CC(=O)O)C(=O)N[C@@H](CC(N)=O)C(=O)N[C@H](C(=O)N[C@@H](C)C(=O)N2CCC[C@H]2C(=O)N[C@@H](CCCNC(=N)N)C(=O)N[C@@H](CO)C(=O)N[C@@H](CCCCN)C(=O)N[C@H](C(=O)N[C@@H](CO)C(=O)N2CCC[C@H]2C(=O)N[C@@H](CCC(N)=O)C(=O)NCC(=O)N[C@@H](Cc2ccc(O)cc2)C(N)=O)[C@@H](C)CC)C(C)C)[C@@H](C)O)[C@@H](C)CC)C(C)C)[C@@H](C)O)NC(=O)[C@H]([C@@H](C)O)NC(=O)CNC(=O)[C@H](Cc2ccccc2)NC(=O)[C@H](CCCNC(=N)N)NC1=O` [SEQ ID NO: 69], for which the Emax in experiment [1] (% of positive control (ADM)) was 147%; in experiment [2], 70%; in experiment [3], 127%. The “HLEC survival (in words)” value in experiment [4] is given as “dose-dependently stimulated; also recorded: significantly promote”. Besides, in experiment [5], the “HLEC proliferation (in words)” value is listed as “dose-dependently stimulated; also recorded: significantly promote”.

In the case of `CCCCCCCCCCCCCCCC(=O)NCCCC[C@H](NC(=O)COCCOCCN)C(=O)NCC(=O)N[C@H]1CSSC[C@@H](C(=O)N[C@H](C(=O)N[C@H](C(=O)N[C@@H](CCC(N)=O)C(=O)N[C@@H](CCCCN)C(=O)N[C@@H](CC(C)C)C(=O)N[C@@H](C)C(=O)N[C@@H](Cc2c[nH]cn2)C(=O)N[C@@H](CCC(N)=O)C(=O)N[C@H](C(=O)N[C@@H](Cc2ccc(O)cc2)C(=O)N[C@@H](CCC(N)=O)C(=O)N[C@@H](Cc2ccccc2)C(=O)N[C@H](C(=O)N[C@@H](CC(=O)O)C(=O)N[C@@H](CCCCN)C(=O)N[C@@H](CC(=O)O)C(=O)N[C@H](C(=O)N[C@@H](C)C(=O)N2CCC[C@H]2C(=O)N[C@@H](CCCNC(=N)N)C(=O)N[C@@H](CO)C(=O)N[C@@H](CCCCN)C(=O)N[C@H](C(=O)N[C@@H](CO)C(=O)N2CCC[C@H]2C(=O)N[C@@H](CCC(N)=O)C(=O)NCC(=O)N[C@@H](Cc2ccc(O)cc2)C(N)=O)[C@@H](C)CC)C(C)C)[C@@H](C)O)[C@@H](C)CC)C(C)C)[C@@H](C)O)NC(=O)[C@H]([C@@H](C)O)NC(=O)CNC(=O)[C@H](Cc2ccccc2)NC(=O)[C@H](CCCNC(=N)N)NC1=O` [SEQ ID NO: 101], the Emax came to 74% in experiment [1] (% of positive control (ADM)), 56% in experiment [2] and 129% in experiment [3]. In experiment [1] (CLR/RAMP2 versus CLR/RAMP1), the “receptor specificity of agonist” value is on record as “CLR/RAMP2-specific”.

Regarding `CCCCCCCCCCCCCCCC(=O)N[C@@H](CCCCN)C(=O)N[C@H](C(=O)N[C@@H](CCC(N)=O)C(=O)N[C@@H](CCCCN)C(=O)N[C@@H](CC(C)C)C(=O)N[C@@H](C)C(=O)N[C@@H](Cc1c[nH]cn1)C(=O)N[C@@H](CCC(N)=O)C(=O)N[C@@H](CO)C(=O)N[C@@H](C)C(=O)N1CCC[C@H]1C(=O)N[C@H](C(=O)N[C@@H](CC(=O)O)C(=O)N1CCC[C@H]1C(=O)N[C@@H](CO)C(=O)N[C@@H](CO)C(=O)N1CCC[C@H]1C(=O)N[C@@H](Cc1c[nH]cn1)C(=O)N[C@@H](CO)C(=O)N[C@@H](Cc1ccc(O)cc1)C(N)=O)C(C)C)C(C)C` [SEQ ID NO: 124], the “CLR/RAMP3 Max Activity % of positive control” value in experiment [6] came out at 102%.
